ChEMBL document CHEMBL5120894, “Isolation, Biosynthetic Investigation, and Biological Evaluation of Maniwamycin G, an Azoxyalkene Compound from Streptomyces sp. TOHO-M025” (J Nat Prod, 2022)
In brackets after ≈: the same amount, converted by molar mass. Activity calls are given as the source filed them. The calls are words filed in the database; no cut-off is given here.

Legend:
[1] = Inhibition of quorum sensing system in Chromobacterium violaceum CV026 assessed as reduction in violacein production incubated for 24 hrs
[2] = Inhibition of quorum sensing system in Chromobacterium violaceum CV026 assessed as reduction in violacein production at 1 mg/ml incubated for 24 hrs relative to control

Row | Compound | IC50 [1] | further results
1 | CCCC/C=C/[N+]([O-])=N/C(C)C(O)C(N)=O (stereo not given) | 500 µg/mL (≈ 2180 µM) | 
2 | CCCC/C=C/[N+]([O-])=N/[C@H](C)[C@@H](C)O | 120 µg/mL (≈ 599 µM) | 
3 | CCCC/C=C/[N+]([O-])=N/[C@H](C)[C@H](C)O | 120 µg/mL (≈ 599 µM) | 
4 | CCCC/C=C/[N+]([O-])=N/[C@H](C)[C@H](O)CC(=O)OC |  | inhibition [2]: 40%
5 | CCCC(O)/C=C/[N+]([O-])=N/C(C)C(C)O (stereo not given) |  | inhibition [1]: Active
